Assay results reported in publication PMC4363177 (Bioorganic & medicinal chemistry, 2015).

Tests used:
5-HT2A receptor = details: cited from earlier work
[1] = biological target: human serotonin 5-HT2A receptor (Homo sapiens, UniProt P28223); test: Radioligand competitive displacement binding, 5-HT2A
[2] = biological target: human serotonin 5-HT2B receptor (Homo sapiens, UniProt P41595); test: Radioligand competitive displacement binding, 5-HT2B
locomotor activity = details: administered alone; cited from earlier work

Sequence of human serotonin 5-HT2A receptor (P28223 whole entry): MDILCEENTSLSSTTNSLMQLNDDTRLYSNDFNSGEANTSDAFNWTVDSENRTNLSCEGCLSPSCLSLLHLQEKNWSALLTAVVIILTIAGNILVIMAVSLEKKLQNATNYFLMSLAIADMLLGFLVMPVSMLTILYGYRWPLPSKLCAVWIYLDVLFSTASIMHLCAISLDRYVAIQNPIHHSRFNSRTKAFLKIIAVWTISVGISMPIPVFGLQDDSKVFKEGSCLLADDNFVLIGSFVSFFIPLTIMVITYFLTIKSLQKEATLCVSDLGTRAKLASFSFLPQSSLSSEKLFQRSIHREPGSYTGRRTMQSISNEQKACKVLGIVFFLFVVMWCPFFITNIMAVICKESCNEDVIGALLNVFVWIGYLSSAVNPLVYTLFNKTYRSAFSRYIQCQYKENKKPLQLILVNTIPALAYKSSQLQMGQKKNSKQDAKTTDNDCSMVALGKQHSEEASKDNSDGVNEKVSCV
Sequence of human serotonin 5-HT2B receptor (P41595 whole entry): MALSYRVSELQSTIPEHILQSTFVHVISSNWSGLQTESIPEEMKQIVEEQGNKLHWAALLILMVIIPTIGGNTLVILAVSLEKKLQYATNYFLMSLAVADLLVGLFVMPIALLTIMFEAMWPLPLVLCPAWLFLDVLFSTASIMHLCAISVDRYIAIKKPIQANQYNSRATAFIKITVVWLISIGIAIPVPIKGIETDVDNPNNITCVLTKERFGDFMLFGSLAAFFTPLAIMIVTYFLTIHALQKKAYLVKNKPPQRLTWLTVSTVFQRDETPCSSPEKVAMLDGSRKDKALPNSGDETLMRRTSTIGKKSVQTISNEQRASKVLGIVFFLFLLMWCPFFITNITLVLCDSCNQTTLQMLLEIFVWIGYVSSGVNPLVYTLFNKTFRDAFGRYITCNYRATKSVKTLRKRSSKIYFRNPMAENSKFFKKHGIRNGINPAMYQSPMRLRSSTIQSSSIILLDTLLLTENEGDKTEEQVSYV

CN(C)[C@@H]1Cc2ccccc2[C@@H](c2ccccc2)C1 (relative stereo) [(−)-trans-PAT, (2S, 4R)-(−)-trans-4-phenyl-N,N-dimethyl-1,2,3,4-tetrahydronaphthalen-2-amine]
functional activity at 5-HT2A receptors (5-HT2A receptor): inverse agonist (and competitive antagonist) activity

CN(C)[C@@H]1Cc2ccccc2[C@@H](c2ccccc2)C1 [(+)-trans-PAT, trans-4-phenyl-N,N-dimethyl-1,2,3,4-tetrahydronaphthalen-2-amine]
Ki [1]: 470 nM
Ki [2]: 240 nM

CN1CCN(C2=Nc3cc(Cl)ccc3Nc3ccccc32)CC1 [clozapine]
effect on locomotor activity (locomotor activity): suppressed locomotor activity
